Values of other authors, collected in patent publication US20120232274A1, “PROCESS FOR PREPARATION OF CLOPIODOGREL BISULFATE FORM-1” (PHARMAZELL GMBH, priority 2009, published 2012).

Experiments:
[1] = Form 2 compared with Form 1 of Clopidogrel bisulfate
[2] = Form 2 compared with Form 1 of Clopidogrel bisulfate; remark: listed apart in the source

solubility [1]: lower solubility than Form 1
thermodynamic stability [2]: greater thermodynamic stability
Compound: COC(=O)[C@H](c1ccccc1Cl)N1CCc2sccc2C1 [Form 2, Clopidogrel bisulfate]
